From patent US20260125382A1, “COMPOUNDS FOR INHIBITING OR DEGRADING CDK2 AND/OR CDK9 AND MEDICINAL USE THEREOF” (KOREA RESEARCH INSTITUTE OF CHEMICAL TECHNOLOGY, priority 2022, published 2026)

Assays:
CDK9 = biological target: T1, CDK9 (Homo sapiens, UniProt P50750); assay: CDK protein degradation activity (Western blotting), CDK9; format: cell-based; conditions: MDA-MB-231 cells, 16 hours, Western blot
T1 construct: endogenous in cells; host or cells: MDA-MB-231
Summary of the method: (§1)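 MDA-MB-231; cmpd 100 nM / 1 μM / 10 μM final vs DMSO, 16 h. Triton X-100 lysates (pH 7.5, phosphatase/protease inhibitors) → SDS-PAGE → Western blot, anti-CDK2, anti-CDK9, tubulin loading control; densitometry.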

CDK2 = biological target: T2, CDK2 (Homo sapiens, UniProt P24941); assay: CDK protein degradation activity (Western blotting), CDK2; format: cell-based; conditions: MDA-MB-231 cells, 16 hours, Western blot
T2 construct: endogenous in cells; host or cells: MDA-MB-231
Summary of the method: as §1

T1 sequence (P50750 whole entry): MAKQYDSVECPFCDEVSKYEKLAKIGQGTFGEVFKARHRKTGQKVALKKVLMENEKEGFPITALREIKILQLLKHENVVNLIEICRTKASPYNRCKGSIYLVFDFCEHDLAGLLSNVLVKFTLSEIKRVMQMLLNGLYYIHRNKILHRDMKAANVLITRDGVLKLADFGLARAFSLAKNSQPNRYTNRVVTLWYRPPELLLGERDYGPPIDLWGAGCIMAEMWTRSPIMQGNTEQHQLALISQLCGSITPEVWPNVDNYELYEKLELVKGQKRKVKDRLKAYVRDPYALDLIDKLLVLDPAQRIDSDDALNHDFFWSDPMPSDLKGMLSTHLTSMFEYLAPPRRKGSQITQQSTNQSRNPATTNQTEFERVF

Compound	Enzyme degradation CDK9 (% remaining) @ 0.1 μM (CDK9)	Enzyme degradation CDK9 (% remaining) @ 1 μM (CDK9)	Enzyme degradation CDK9 (% remaining) @ 10 μM (CDK9)	Enzyme degradation CDK2 (% remaining) @ 0.1 μM (CDK2)	Enzyme degradation CDK2 (% remaining) @ 1 μM (CDK2)	Enzyme degradation CDK2 (% remaining) @ 10 μM (CDK2)
Cc1cccc(C(=O)N[C@H]2C[C@@H](n3cnc4c(NCc5ccc(OCC6CCN(C(=O)CNc7cccc8c7C(=O)N([C@H]7CCC(=O)NC7=O)C8=O)CC6)cc5)ncnc43)C2)n1 [Compound 109, N-((1s,3s)-3-(6-((4-((1-((2-(2,6-dioxopiperidin-3-yl)-1,3-dioxoisoindolin-4-yl)glycyl)piperidin-4-yl)methoxy)benzyl)amino)-9H-purin-9-yl)cyclobutyl)-6-methylpicolinamide]	0/0/0%	0/0/0%	0/0/0%	40%	60%	70%
Cc1cccc(C(=O)NC2CC(n3cnc4c(NCc5ccc(OCC6CCN(c7ccc8c(c7)C(=O)N([C@H]7CCC(=O)NC7=O)C8=O)CC6)cc5)ncnc43)C2)n1 (stereo partly drawn) [Compound 110, N-((1s,3s)-3-(6-((4-((1-(2-(2,6-dioxopiperidin-3-yl)-1,3-dioxoisoindolin-5-yl)piperidin-4-yl)methoxy)benzyl)amino)-9H-purin-9-yl)cyclobutyl)-6-methylpicolinamide]	90%	20%	30%	100%	60%	80%
Cc1cccc(C(=O)N[C@H]2C[C@@H](n3cnc4c(NCc5ccc(OCCCN6CCN(C(=O)COc7ccc8c(c7)C(=O)N([C@H]7CCC(=O)NC7=O)C8=O)CC6)cc5)ncnc43)C2)n1 [Compound 112, N-((1s,3s)-3-(6-((4-(3-(4-(2-((2-(2,6-dioxopiperidin-3-yl)-1,3-dioxoisoindolin-5-yl)oxy)acetyl)piperazin-1-yl)propoxy)benzyl)amino)-9H-purin-9-yl)cyclobutyl)-6-methylpicolinamide]	100%	0%	0%	100%	50%	40%
Cc1cccc(C(=O)NC2CC(n3cnc4c(NCCC5CCN(CC6CCN(C(=O)COc7cccc8c7C(=O)N([C@H]7CCC(=O)NC7=O)C8=O)CC6)CC5)ncnc43)C2)n1 (stereo partly drawn) [Compound 122, N-((1s,3s)-3-(6-((2-(1-((1-(2-((2-(2,6-dioxopiperidin-3-yl)-1,3-dioxoisoindolin-4-yl)oxy)acetyl)piperidin-4-yl)methyl)piperidin-4-yl)ethyl)amino)-9H-purin-9-yl)cyclobutyl)-6-methylpicolinamide]	10%	0%	0%	30%	10%	0%
Cc1cccc(C(=O)NC2CC(n3cnc4c(NCCC5CCN(CC6CCN(C(=O)CNc7cccc8c7C(=O)N([C@H]7CCC(=O)NC7=O)C8=O)CC6)CC5)ncnc43)C2)n1 (stereo partly drawn) [Compound 123, N-((1s,3s)-3-(6-((2-(1-((1-((2-(2,6-dioxopiperidin-3-yl)-1,3-dioxoisoindolin-4-yl)glycyl)piperidin-4-yl)methyl)piperidin-4-yl)ethyl)amino)-9H-purin-9-yl)cyclobutyl)-6-methylpicolinamide]	0/0/0%	0/0/0%	0/0/0%	10%	10%	20%

Further lines, results first:

Enzyme degradation CDK9 (% remaining) @ 0.1 μM (CDK9)	Enzyme degradation CDK9 (% remaining) @ 1 μM (CDK9)	Enzyme degradation CDK9 (% remaining) @ 10 μM (CDK9)	Enzyme degradation CDK2 (% remaining) @ 0.1 μM (CDK2)	Enzyme degradation CDK2 (% remaining) @ 1 μM (CDK2)	Enzyme degradation CDK2 (% remaining) @ 10 μM (CDK2)	Compound
100%	10%	0%	30/30/30%	30/30/30%	30/30/30%	Cc1cccc(C(=O)N[C@H]2C[C@@H](n3cnc4c(NCc5ccc(OCCCN6CCN(C(=O)COc7cccc8c7C(=O)N([C@H]7CCC(=O)NC7=O)C8=O)CC6)cc5)ncnc43)C2)n1 [Compound 113, N-((1s,3s)-3-(6-((4-(3-(4-(2-((2-(2,6-dioxopiperidin-3-yl)-1,3-dioxoisoindolin-4-yl)oxy)acetyl)piperazin-1-yl)propoxy)benzyl)amino)-9H-purin-9-yl)cyclobutyl)-6-methylpicolinamide]
0/0/0%	0/0/0%	0/0/0%	30%	40%	50%	Cc1cccc(C(=O)NC2CC(n3cnc4c(NCc5ccc(OCCCN6CCN(C(=O)CNc7ccc8c(c7)C(=O)N([C@H]7CCC(=O)NC7=O)C8=O)CC6)cc5)ncnc43)C2)n1 (stereo partly drawn) [Compound 114, N-((1s,3s)-3-(6-((4-(3-(4-((2-(2,6-dioxopiperidin-3-yl)-1,3-dioxoisoindolin-5-yl)glycyl)piperazin-1-yl)propoxy)benzyl)amino)-9H-purin-9-yl)cyclobutyl)-6-methylpicolinamide]
0/0/0%	0/0/0%	0/0/0%	30%	40%	50%	Cc1cccc(C(=O)N[C@H]2C[C@@H](n3cnc4c(NCc5ccc(OCCCN6CCN(C(=O)CNc7cccc8c7C(=O)N([C@H]7CCC(=O)NC7=O)C8=O)CC6)cc5)ncnc43)C2)n1 [Compound 115, N-((1s,3s)-3-(6-((4-(3-(4-((2-(2,6-dioxopiperidin-3-yl)-1,3-dioxoisoindolin-4-yl)glycyl)piperazin-1-yl)propoxy)benzyl)amino)-9H-purin-9-yl)cyclobutyl)-6-methylpicolinamide]
10%	0%	0%	30%	40%	50%	Cc1cccc(C(=O)N[C@H]2C[C@@H](n3cnc4c(NCc5ccc(OCCCN6CCN(c7ccc8c(c7)C(=O)N(C7CCC(=O)NC7=O)C8=O)CC6)cc5)ncnc43)C2)n1 (stereo partly drawn) [Compound 116, N-((1s,3s)-3-(6-((4-(3-(4-(2-(2,6-dioxopiperidin-3-yl)-1,3-dioxoisoindolin-5-yl)piperazin-1-yl)propoxy)benzyl)amino)-9H-purin-9-yl)cyclobutyl)-6-methylpicolinamide]
10%	10%	0%	80/80/80%	80/80/80%	80/80/80%	Cc1cccc(C(=O)N[C@H]2C[C@@H](n3cnc4c(NCc5ccc(OCCCN6CCN(c7cccc8c7C(=O)N([C@H]7CCC(=O)NC7=O)C8=O)CC6)cc5)ncnc43)C2)n1 [Compound 117, N-((1s,3s)-3-(6-((4-(3-(4-(2-(2,6-dioxopiperidin-3-yl)-1,3-dioxoisoindolin-4-yl)piperazin-1-yl)propoxy)benzyl)amino)-9H-purin-9-yl)cyclobutyl)-6-methylpicolinamide]
